What all share (type): cell-based
For test [1], the system named is Interferon-α. Briefly: Induction of Interferon-α using cryopreserved human PBMCs. The settings on record: PBMC, 24 h, normalised to 1 uM resiquimod, read-out: mean pEC50 for induction of Interferon-α (converted). How it is done:
Assay for the Induction of Interferon-α using Cryopreserved Human Peripheral Blood Mononuclear Cells (PBMCs)
Compounds were dissolved in DMSO. Serial 2-fold dilutions with DMSO were prepared and 0.25 μl dispensed into 384-well clear Greiner polypropylene plates.
Blood samples of up to 200 ml were obtained from healthy human donors. Whole blood in 25 ml volumes was overlaid onto 15 ml Ficoll gradients in Leucosep tubes, and centrifuged at 1000 g for 20 min. Cells in the band at the plasma/histopaque interface were carefully removed and washed twice with PBS (centrifuged at 400 g for 5 min to harvest). The final pellet was resuspended in freezing medium (90% Heat-inactivated serum, 10% DMSO) to a cell concentration of 4×10^7 cells/ml. The resuspended cells were then cryopreserved (frozen) using a rate controlled freezer, and stored at −140° C. for up to 4 months.
Incubation and Assay for Interferon-α
Immediately prior to assay, vials of cryopreserved (frozen) PBMCs were thawed rapidly in a water bath at 37° C. A 1:10 dilution of the cells in trypan blue was prepared and counted. The PBMCs were then diluted in growth media [RPMI 1640 containing 10% fetal calf serum (invitrogen), Penicillin+Streptavidin (Gibco cat. # 25030-024, 1:50), L-Glutamine 2 mM, and 1000 units/ml recombinant human IFN-gamma (Preprotech catalogue #300-02)] to a density of 1×10^6 cells/ml, and 50 ul/well dispensed to 384-well clear Greiner polypropylene plates containing 0.25 μl DMSO or test compound in 0.25 μl DMSO. […] Plates were incubated for 24 h at 37° C. in 5% CO2.
A multi-isoform immunoassay was used to quantify IFN-α in PBMC supernatants. Rabbit polyclonal antibody against human IFN-α (catalogue number 31101, Stratech Scientific) was diluted 1:10000 in assay buffer (RPMI 1640 containing 10% fetal calf serum, Invitrogen) and 20 μl was added to each well of an MSD (Meso-Scale Discovery) single small-spot 384-well GAR (goat anti-rabbit antibody coated) plate. The plate was incubated for 1 h at room temperature with vigorous shaking. Following three washes with PBS, 20 μl of cell supernatant were added to each well of the plate. The plate was then incubated for 1 h at room temperature with vigorous shaking. A pair of monoclonal antibodies to IFN-α (catalogue numbers 21100 and 21112, Stratech Scientific) were labelled with sulfo-TAG (MSD), diluted 1:1000 in assay buffer and 20 μl added to each well of the plate. The plate was further incubated for 1 h at room temperature with vigorous shaking. Following three washes with PBS, 30 μl of ×2 T buffer (MSD) was added to each well and the plate was read on an MSD Sector 6000 plate reader.
Data were normalised to internal plate controls of 1 uM resiquimod (n=16) and DMSO (n=16). pEC50 values were derived by 4-parameter curve fit with IRLS in ActivityBase, from 11-point, two-fold serial dilution of test compounds.

Test [2] deals with TNF-α. Briefly: Induction of TNF-α using fresh human PBMCs. The settings on record: PBMC, 24 hr, relative to 2 μM resiquimod control, read-out: mean pEC50 for induction of TNF-α (converted). The protocol: (§1) Assay for the Induction of Interferon-α and TNF-α Using Fresh Human Peripheral Blood Mononuclear Cells (PBMCs)
(§2) Compounds were dissolved and serially diluted in DMSO to give 100× the required concentration range using a Biomek 2000. 1 ul of test compound was transferred into 96-well tissue culture plates using a Biomek FX. Each compound was assayed in duplicate for each donor. Each plate contained a dilution series of the TLR7/8 agonist resiquimod as standard and Column 11 contained 1 μl of 200 μM resiquimod (giving a 2 μM final concentration, used to define the approximate maximal response to resiquimod).
(§3) Blood samples from two human donors were collected into sodium heparin (10 U/ml). 25 ml volumes of whole blood were overlaid onto 15 mls Histopaque in Leucosep tubes which were centrifuged at 800 g for 20 min and the band at the plasma/histopaque interface carefully removed. The collected cells were centrifuged at 2500 rpm for 10 min and the pellet resuspended in 10 ml of media (RPMI 1640 (Low endotoxin) supplemented with 10% v/v foetal calf serum (FCS, low endotoxin) 100 U/ml penicillin G, 100 μg/ml streptomycin, 10 mM L-glutamine and 1× non-essential amino acids). A 1:20 dilution of the cells was prepared using trypan blue & the cells counted using a haemocytometer. The PBMCs were diluted to give a final concentration of 2×10^6/ml and 100 ul of this cells suspension was added to wells containing 1 μl of diluted test compound.
(§4) The cell preparations were incubated for 24 hr (37° C., 95% air, 5% CO2) after which a sample of the supernatant was removed using the Biomek FX and assayed for both IFN-α and TNF-α using the MSD (Mesoscale Discovery) electrochemiluminescence assay platform. The IFN-α assay was carried out similarly to that described above. The TNF-α assay was carried out as per kit instructions (Cat No K111 BHB).
(§5) Cytokine released was expressed as a percentage of the 2 μM resiquimod control (column 11). This percentage was plotted against compound concentration and the pEC50 for the response determined by non-linear least squares curve fitting. For the IFN-α responses generally a 4 parameter logistic model was selected. For the TNF responses where a clear maximum response was obtained (i.e. a well defined plateau in the response was observed) then a 4 parameter model was generally used. If the upper asymptote of the curve wasn't well defined then the curve fitting was generally constrained to a maximal response of 100% (i.e., to the response to 2 μM resiquimod) or to the response of the highest concentration tested if this was greater than the resiquimod response. Some curves were bell shaped for one or both cytokines and the cytokine data on the down slope of the bell shaped response (i.e. concentrations above those giving the maximal response) were generally excluded from the fit, usually with the exception of the concentration immediately above the peak response. Curve fitting thus concentrated on the up slope of the dose response curve.

Test [3] concerns Interferon-α. In words: Induction of Interferon-α using fresh human PBMCs. The settings on record: PBMC, 24 hr, relative to 2 μM resiquimod control, read-out: mean pEC50 for induction of IFN-α (converted). How it is done:
as §1, §2, §3, §4, §5

Counter-ions that a name gives are not always drawn. A value given as a limit tells only on which side of the number the result lay.

For `CCCCOc1nc(N)c2[nH]c(=O)n(CCCCN3CCN(C(C)C)CC3)c2n1` [Example 29, 6-Amino-2-(butyloxy)-9-{4-[4-(1-methylethyl)-1-piperazinyl]butyl}-7,9-dihydro-8H-purin-8-one], the EC50 is less than 3.16 µM in test [1], greater than 1000 nM in test [2] and less than 10 nM in test [3].

On to `CCCCOc1nc(N)c2[nH]c(=O)n(CCCCCCN3CCNCC3)c2n1` [Example 54, 6-Amino-2-(butyloxy)-9-[6-(1-piperazinyl)hexyl]-7,9-dihydro-8H-purin-8-one], for which the figures for the EC50 in test [1], in test [2] and in test [3] were less than 3.16 µM, greater than 1000 nM and less than 10 nM, respectively.

For the compound `CCCCOc1nc(N)c2[nH]c(=O)n(CCCCCN3CCN(C(C)C)CC3)c2n1` [Example 48, 6-Amino-2-(butyloxy)-9-{5-[4-(1-methylethyl)-1-piperazinyl]pentyl}-7,9-dihydro-8H-purin-8-one], the EC50 was less than 3.16 µM in test [1], greater than 1000 nM in test [2] and less than 10 nM in test [3].

On to `CCCCOc1nc(N)c2[nH]c(=O)n(CCCCCCN3CCN(C(C)(C)C)CC3)c2n1` [Example 57, 6-Amino-2-(butyloxy)-9-{6-[4-(1,1-dimethylethyl)-1-piperazinyl]hexyl}-7,9-dihydro-8H-purin-8-one], for which the EC50 in test [1] was less than 3.16 µM; in test [2] it was greater than 1000 nM; in test [3] it was less than 1 nM.

With `CCCCOc1nc(N)c2[nH]c(=O)n(CCCCN3CCN(C(C)(C)C)CC3)c2n1` [Example 32, 6-Amino-2-(butyloxy)-9-{4-[4-(1,1-dimethylethyl)-1-piperazinyl]butyl}-7,9-dihydro-8H-purin-8-one], the EC50 in test [1] is less than 3.16 µM; in test [2] it was greater than 1000 nM; in test [3], less than 10 nM.

As to `CCCCOc1nc(N)c2[nH]c(=O)n(CCCCN3CCN(CC)CC3)c2n1` [Example 27, 6-Amino-2-(butyloxy)-9-[4-(4-ethyl-1-piperazinyl)butyl]-7,9-dihydro-8H-burin-8-one], the EC50 was less than 3.16 µM in test [1], greater than 1000 nM in test [2] and less than 10 nM in test [3].

In the case of `CCCCOc1nc(N)c2[nH]c(=O)n(CCCCN3CCN(C)CC3)c2n1` [Example 26, 6-Amino-2-(butyloxy)-9-[4-(4-methyl-1-piperazinyl)butyl]-7,9-dihydro-8H-burin-8-one], the values for the EC50 in test [1], in test [2] and in test [3] were less than 3.16 µM, greater than 3160 nM and less than 100 nM, respectively.

For the compound `CCCCOc1nc(N)c2[nH]c(=O)n(CCCN3CCN(C)CC3)c2n1` [Example 6, 6-Amino-2-(butyloxy)-9-[3-(4-methyl-1-piperazinyl)propyl]-7,9-dihydro-8H-purin-8-one], the EC50 in test [1] is less than 3.16 µM; in test [2], greater than 3160 nM; in test [3], less than 100 nM.

Take `CCCCNc1nc(N)c2[nH]c(=O)n(CCCN3CCN(C)CC3)c2n1` [Example 16, 6-Amino-2-(butylamino)-9-[3-(4-methyl-1-piperazinyl)propyl]-7,9-dihydro-8H-purin-8-one]: in test [1], the EC50 is less than 3.16 µM.

`CCCCOc1nc(N)c2[nH]c(=O)n(CCN3CCNCC3)c2n1` [Example 1, 6-Amino-2-(butyloxy)-9-[2-(1-piperazinyl)ethyl]-7,9-dihydro-8H-purin-8-one dihydrochloride salt]: the EC50 in test [1] was less than 3.16 µM; in test [2], greater than 3160 nM; in test [3], less than 100 nM.

`CCCCNc1nc(N)c2[nH]c(=O)n(CCCCN3CCN(CC(C)C)CC3)c2n1` [Example 40, 6-Amino-2-(butylamino)-9-{4-[4-(2-methylpropyl)-1-piperazinyl]butyl}-7,9-dihydro-8H-purin-8-one]: the EC50 in test [1] is less than 3.16 µM.

Consider `CCCCNc1nc(N)c2[nH]c(=O)n(CCCN3CCN(CCCC)CC3)c2n1` [Example 20, 6-Amino-2-(butylamino)-9-[3-(4-butyl-1-piperazinyl)propyl]-7,9-dihydro-8H-purin-8-one], for which the EC50 in test [1] was less than 3.16 µM.

For the compound `CCCCNc1nc(N)c2[nH]c(=O)n(CCCCN3CCN(C(C)(C)C)CC3)c2n1` [Example 41, 6-Amino-2-(butylamino)-9-{4-[4-(1,1-dimethylethyl)-1-piperazinyl]butyl}-7,9-dihydro-8H-purin-8-one], the EC50 in test [1] was less than 3.16 µM; in test [2] it was greater than 3160 nM; in test [3] it was less than 100 nM.

For the compound `CCCCOc1nc(N)c2[nH]c(=O)n(CCCCN3CCN(CC(C)C)CC3)c2n1` [Example 31, 6-Amino-2-(butyloxy)-9-{4-[4-(2-methylpropyl)-1-piperazinyl]butyl}-7,9-dihydro-8H-purin-8-one], the EC50 in test [1] is less than 3.16 µM.
